Test results reported in patent publication US12404232B2, “Compounds and compositions for intracellular delivery of therapeutic agents” (ModernaTX, Inc., priority 2015, dated 2025).

Columns and labels:
[1] = test system: mice; assay: hEPO expression in mice after intravenous administration; assay type: in vivo; conditions: for hEPO expression (pg/ml) 3h / hEPO expression (pg/ml) 6 h / hEPO expression (pg/ml) 24 h: 0.5 mpk
Protocol: Sample formulations of nanoparticle compositions including different lipids are generally first evaluated according to Luc expression in vivo. The activity of several such compositions was further evaluated using an mRNA encoding hEPO. Nanoparticle compositions including Compounds 6, 18, 25, 30, 108-112, 60, and 122, or MC3 were prepared according to Example 2.
The expression of hEPO and cytokine induction in mice intravenously administered a nanoparticle composition at a dose of 0.5 mpk were measured at 3, 6, and 24 hours. […] The expression of hEPO in mice intramuscularly administered a nanoparticle composition from Table 1B at a dose of 0.01 mpk were measured at 3, 6, and 24 hours. […] (see also FIG. 9.)
Table 12 compares the nanoparticle compositions including compounds according to Formula (I), (IA), (II), (IIa), (IIb), (IIc), (IId) or (IIe) to the compositions including MC3 on the basis of expression and flux levels. […] Thus, these lipids may be useful in nanoparticle composition therapeutics. […]

[2] = Particle size and polydispersity index of nanoparticle compositions (Zetasizer Nano ZS); assay type: physicochemical
Procedure, shortened: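 Particle size and PDI by Zetasizer Nano ZS dynamic light scattering in 1×PBS. Lipid nanoparticles carried mRNA (luciferase or hEPO) with ionizable lipid:DSPC:cholesterol:PEG-DMG at 50:10:38.5:1.5 mol %.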

[3] = test system: mice; assay: Cytokine induction (IL-6, IP-10) in mice after intravenous administration; assay type: in vivo; design: IL-6 / IP-10: unit not given here; conditions: 0.5 mpk; for IL-6 / IP-10: 6 hours; for Cytokine expression (pg/ml) IL-6 (6 h) / Cytokine expression (pg/ml) IP-10 (6 h): hEPO mRNA
Procedure, shortened: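 Nanoparticle compositions given intravenously to mice at 0.5 mpk; serum cytokine concentrations measured at 6 hours, with MC3 formulation and PBS as comparators.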

[4] = test system: rat; assay: Clinical chemistry and hematology in rat after intravenous administration; assay type: in vivo; design: unit not given here; conditions: 2 mpk, 48 h post dose
Protocol: Sample formulations of nanoparticle compositions including different lipids were administered intravenously to rat at a dose of 2 mpk. The expression of various clinical markers was evaluated at 48 h post dose and compared to that induced by administration of MC3 formulations or phosphate buffered saline (PBS).
Table 19 summarizes the hEPO expression, IP-10 induction, liver and spleen levels, and alanine aminotransferase (ALT) and aspartate aminotransferase (AST) measured upon intravenous administration of formulations including Compounds 48, 49, and 50 to rat at 0.2 and 2 mpk and hEPO mRNA. hEPO concentrations were measured 6 hours after administration, while cytokine induction and liver and spleen levels were measured 48 hours after administration. hEPO and IP-10 concentrations are presented in pg/ml, while liver levels are provided in ng/g. ALT and AST levels are presented in international units.

[5] = hEPO mRNA, lipid:DSPC:Chol:PEG-DMG (50:10:38.5:1.5) (Table 10)
[6] = nanoparticle composition lipid:DSPC:cholesterol:PEG-DMG 50:10:38.5:1.5 mol %, mRNA encoding Luc or hEPO (Table 1A)

SMILES	hEPO concentrations compared with MC3 formulations at each time point ([1]; 0.5 mpk, 3, 6 and 24 hours)	hEPO expression (pg/ml) 3h [1]	hEPO expression (pg/ml) 6 h [1]	hEPO expression (pg/ml) 24 h [1]	Size (nm) [2, 5]	Diameter (nm) ([2]; mRNA encoding anti-HA antibody (Table 33))	PDI ([2]; nanoparticle composition 50:10:38.5:1.5 mol % (Table 1A))	Size (nm) [2, 6]	IL-6 [3]	Cytokine expression (pg/ml) IL-6 (6 h) [3]	Cytokine expression (pg/ml) IP-10 (6 h) [3]	Alanine aminotransferase (Concentration) [4]	Aspartate aminotransferase (Concentration) [4]	Lymphocytes (Concentration) [4]	Monocytes (Concentration) [4]	Neutrophils (Concentration) [4]	IP-10 [3]	Size (nm) ([2]; formulated with hEPO mRNA (Table 1B))
CCCCCCCCCOC(=O)CCCCCCCN(CCO)CCCCCCCC(=O)OC(CCCCCCCC)CCCCCCCC [Compound 18, Heptadecan-9-yl 8-((2-hydroxyethyl)(8-(nonyloxy)-8-oxooctyl)amino)octanoate]	higher hEPO concentrations than MC3 formulations	3e+06 pg/mL	3.38e+06 pg/mL	1.8e+06 pg/mL	78.6 nm	76.8 nm	0.042	86.2 nm	78.76	10.16 pg/mL	299.93 pg/mL	–	–	–	–	–	–	–
CCCCCCCCCCCOC(=O)CCCCCN(CCO)CCCCCCCC(=O)OC(CCCCCCCC)CCCCCCCC [Compound 25, Heptadecan-9-yl 8-((2-hydroxyethyl)(6-oxo-6-(undecyloxy)hexyl)amino)octanoate]	–	–	–	–	–	–	–	–	233.45	–	–	52	124.5	15924	2122	1998	1194.13	–
CCCCCC=CCC=CCCCCCCCCC(CCCCCCCCC=CCC=CCCCCC)OC(=O)CCCN(C)C (stereo not drawn) [MC3, heptatriaconta-6,9,28,31-tetraen-19-yl 4-(dimethylamino)butanoate, reference compound]	–	1.57e+06 pg/mL	1.83e+06 pg/mL	810000 pg/mL	73.7 nm	–	–	79.7 nm	124.42	19.85 pg/mL	117.94 pg/mL	339	325	19976	1429	4962.5	504.90	57.7 nm
